Publication PMC6858373 (Scientific Reports, 2019)
Where two headings read alike, the source gives them in different places.

Assays:
[1] = molecular target: full-length P. pyralis luciferase (Photinus pyralis, UniProt P08659, K549A/L550V/N119G/N50D/S548I); assay type: cell-based
[2] = molecular target: T1, FGF14:Nav1.6 C-tail complex (Homo sapiens, UniProt Q92915+Q9UQD0); experiment: Split-luciferase complementation assay (LCA) in Clone V double stable HEK293 cells; assay type: cell-based; conditions: for Z-score (LCA primary screening): 30 µM, average of primary screening (n = 2), vs on-plate 0.3% DMSO; for Z-score (LCA primary screening) / IMin (% Luminescence) / EMax (% Luminescence): 384-well; for IMin (% Luminescence): antagonists; for IMin (% Luminescence) / EMax (% Luminescence): normalized to DMSO; for EMax (% Luminescence): agonists; for EC50: read-out: EC50
T1 construct: polymerase chain reaction (PCR) amplification of the FGF14 open reading frame (nt 1–855); C-terminal fragment of Nav1.6 (amino acids 1763–1976) fused with CD4ΔC-tail (amino acids 1–395); expressed in transfected cells

[3] = CC_NCI screening, full-length luciferase counter-screen luminescence, normalized to on-plate 0.3% DMSO controls
[4] = CC_NCI screening, full-length luciferase counter-screen, normalized to on-plate 0.3% DMSO controls
[5] = CC_NCI screening, LCA luminescence, biological replicate Set 1, normalized to on-plate 0.3% DMSO controls (n=16 per plate)
[6] = CC_NCI screening, LCA luminescence, biological replicate Set 2, normalized to on-plate 0.3% DMSO controls (n=16 per plate)
[7] = CC_NCI screening, LCA, biological replicate Set 1, normalized to on-plate 0.3% DMSO controls
[8] = CC_NCI screening, LCA, biological replicate Set 2, normalized to on-plate 0.3% DMSO controls
[9] = CC_NCI screening, average of Set 1 and Set 2, normalized to 0.3% DMSO controls
[10] = CC_NCI screening, normalized to on-plate 0.3% DMSO controls
[11] = CC_NCI screening, biological replicate Set 1, normalized to on-plate 0.3% DMSO controls
[12] = CC_NCI screening, biological replicate Set 1, normalized to on-plate 0.3% DMSO controls (n=16 per plate)
[13] = CC_NCI screening, biological replicate Set 2, normalized to on-plate 0.3% DMSO controls
[14] = CC_NCI screening, biological replicate Set 2, normalized to on-plate 0.3% DMSO controls (n=16 per plate)
[15] = average of Set 1 and Set 2, normalized to 0.3% DMSO controls
[16] = estimated, 8-point dose response 0.25-30 µM, n = 4 per concentration, library compounds, read-out: IC50
[17] = estimated, 8-point dose response 0.25-30 µM, n = 4 per concentration, library compounds

T1 sequence (Q92915 1-252 isoform Q92915-2): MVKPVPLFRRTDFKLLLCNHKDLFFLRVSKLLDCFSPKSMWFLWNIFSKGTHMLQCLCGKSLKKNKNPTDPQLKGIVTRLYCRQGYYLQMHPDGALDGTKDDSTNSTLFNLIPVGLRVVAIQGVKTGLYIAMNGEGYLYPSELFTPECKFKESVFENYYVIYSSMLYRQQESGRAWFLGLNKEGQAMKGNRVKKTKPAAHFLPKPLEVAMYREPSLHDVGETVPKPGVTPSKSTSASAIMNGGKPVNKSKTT
T1 sequence (Q9UQD0 1763-1976 limits assumed): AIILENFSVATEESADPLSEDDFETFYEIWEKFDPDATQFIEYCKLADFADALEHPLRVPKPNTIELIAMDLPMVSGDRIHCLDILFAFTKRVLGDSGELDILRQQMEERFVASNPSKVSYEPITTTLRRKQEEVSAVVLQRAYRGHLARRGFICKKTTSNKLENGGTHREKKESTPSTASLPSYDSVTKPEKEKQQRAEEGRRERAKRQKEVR
Sequence of full-length P. pyralis luciferase (P08659 whole entry N50D/N119G/S548I/K549A/L550V, looked up): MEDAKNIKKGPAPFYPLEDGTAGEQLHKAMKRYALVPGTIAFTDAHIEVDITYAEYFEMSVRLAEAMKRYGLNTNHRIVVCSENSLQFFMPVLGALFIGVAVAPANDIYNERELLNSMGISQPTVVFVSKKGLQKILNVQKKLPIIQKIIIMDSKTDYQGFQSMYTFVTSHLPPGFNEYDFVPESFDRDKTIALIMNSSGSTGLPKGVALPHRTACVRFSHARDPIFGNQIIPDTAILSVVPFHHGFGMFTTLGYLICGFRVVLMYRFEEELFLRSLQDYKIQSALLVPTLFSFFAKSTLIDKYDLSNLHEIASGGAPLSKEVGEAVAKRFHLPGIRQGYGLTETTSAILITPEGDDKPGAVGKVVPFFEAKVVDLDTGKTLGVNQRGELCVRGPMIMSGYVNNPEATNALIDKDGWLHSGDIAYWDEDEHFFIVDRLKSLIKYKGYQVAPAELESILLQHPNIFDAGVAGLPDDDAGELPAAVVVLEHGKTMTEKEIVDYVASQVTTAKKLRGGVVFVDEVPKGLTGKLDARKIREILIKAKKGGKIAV

Compound: CCCCCCCCCCCCSc1nc2c([nH]1)c(=O)n(C)c(=O)n2C
- Luciferase Assay % Lum [1, 3]: 103.16%
- Luciferase Assay Z-score [1, 4]: 0.40
- Toxicity Assay % Fluor (Clone V cells): 93.89%
- Toxicity Assay Z-score (Clone V cells): -0.85
- Split Luciferase Assay % Lum Set 1 [2, 5]: 112.30%
- Split Luciferase Assay %Lum Set 2 [2, 6]: 118.60%
- Split Luciferase Assay Z-score Set 1 [2, 7]: 0.99
- Split Luciferase Assay Z-score Set 2 [2, 8]: 1.51
- Split Luciferase Assay %Lum Avg [2, 9]: 115.45%

Compound: NS(=O)(=O)c1nn2cc(-c3ccccc3)nc2s1 [AEG 3482]
- Luciferase Assay % Lum (full-length luciferase counter-screen) [1, 10]: 93.96%
- Luciferase Assay Z-score (full-length luciferase counter-screen) [1, 10]: -0.77
- Toxicity Assay % Fluor (CTB cell viability fluorescence) (Clone V cells): 105.28%
- Toxicity Assay Z-score (CTB cell viability) (Clone V cells): 0.74
- Split Luciferase Assay Z-score Set 1 [2, 11]: 1.78
- Split Luciferase Assay % Lum Set 1 [2, 12]: 122.08%
- Split Luciferase Assay Z-score Set 2 [2, 13]: 1.09
- Split Luciferase Assay %Lum Set 2 [2, 14]: 113.39%
- Split Luciferase Assay %Lum Avg [2, 15]: 117.74%

Compound: N#C/C(=C/c1ccc(O)c(O)c1)C(=O)NCc1ccccc1 [AG 490]
- Luciferase Assay % Lum [1, 3]: 85.62%
- Luciferase Assay Z-score [1, 4]: -1.84
- Toxicity Assay % Fluor (Clone V cells): 89.42%
- Toxicity Assay Z-score (Clone V cells): -1.48
- Split Luciferase Assay % Lum Set 1 [2, 5]: 118.82%
- Split Luciferase Assay %Lum Set 2 [2, 6]: 120.68%
- Split Luciferase Assay Z-score Set 1 [2, 7]: 1.52
- Split Luciferase Assay Z-score Set 2 [2, 8]: 1.68
- Split Luciferase Assay %Lum Avg [2, 9]: 119.75%

Compound: NC(=O)c1ccc2nc(-c3ccc(Oc4ccc(Cl)cc4)cc3)[nH]c2c1 [CHK2 INHIBITOR II]
- Toxicity Assay % Fluor (CTB cell viability fluorescence) (Clone V cells): 112.91%
- Toxicity Assay Z-score (CTB cell viability) (Clone V cells): 1.80

Compound: O=c1cc(N2CCOCC2)nc2c3ccccc3ccn12 [COMPOUND 401]
- Luciferase Assay % Lum (full-length luciferase counter-screen) [1, 10]: 93.50%
- Luciferase Assay Z-score (full-length luciferase counter-screen) [1, 10]: -0.83
- Split Luciferase Assay Z-score Set 1 [2, 11]: -0.15
- Split Luciferase Assay % Lum Set 1 [2, 12]: 98.17%
- Split Luciferase Assay Z-score Set 2 [2, 13]: -0.43
- Split Luciferase Assay %Lum Set 2 [2, 14]: 94.67%
- Split Luciferase Assay %Lum Avg [2, 15]: 96.42%

Compound: N.N.[Cl][Pt][Cl] [Cisplatin]
- Luciferase Assay % Lum [1, 3]: 99.37%
- Luciferase Assay Z-score [1, 4]: -0.08
- Split Luciferase Assay % Lum Set 1 [2, 5]: 89.47%
- Split Luciferase Assay %Lum Set 2 [2, 6]: 98.83%
- Split Luciferase Assay Z-score Set 1 [2, 7]: -0.85
- Split Luciferase Assay Z-score Set 2 [2, 8]: -0.10
- Split Luciferase Assay %Lum Avg [2, 9]: 94.15%

Compound: CS(=O)(=O)N1CCN(Cc2cc3nc(-c4cccc5[nH]ncc45)nc(N4CCOCC4)c3s2)CC1 [GDC 0941]
- Luciferase Assay % Lum (full-length luciferase counter-screen) [1, 10]: 84.36%
- Luciferase Assay Z-score (full-length luciferase counter-screen) [1, 10]: -2.00

Compound: CCn1c(-c2nonc2N)nc2cnc(Oc3cccc(NC(=O)c4ccc(OCCN5CCOCC5)cc4)c3)cc21 [GSK 269962 A, reference compound]
- Z-score (LCA primary screening) [2]: −5.77
- IMin (% Luminescence) ([2]; Clone V cells): 28.81 % Luminescence
- IC50 [2, 16]: 24.7 µM

Compound: Cc1ccc(NC(=O)c2ccc(CN3CCN(C)CC3)cc2)cc1Nc1nccc(-c2cccnc2)n1 [Imatinib]
- Luciferase Assay % Lum [1]: 90.17%
- Luciferase Assay Z-score [1]: -1.26

Compound: CCc1c2c(nc3ccc(OC(=O)N4CCC(N5CCCCC5)CC4)cc13)-c1cc3c(c(=O)n1C2)COC(=O)[C@]3(O)CC.Cl [Irinotecan hydrochloride]
- Luciferase Assay % Lum [1, 3]: 96.04%
- Luciferase Assay Z-score [1, 4]: -0.51

Compound: O=[N+]([O-])/C=C/c1ccc2c(c1)OCO2 [MNS, reference compound]
- % maximal luminescence, full-length luciferase (normalized mean and SD) ([1]; MNS 30 µM, 96-well plates): 96.8% ± 2.8%
- IC50 ([2]; 384-well plates, range 0.625 - 25 μM, n=16 per concentration (Supplementary Fig. S1A), read-out: Estimated IC50): 13.3 µM
- % luminescence (normalized mean and SD) ([2]; MNS 30 µM, Clone V cells, 96-well plates): 10.8% ± 3.1%
- IC50 ([2]; cell density 1 × 10^4 cells per 384-well, 8 concentrations 0.625-30 µM, read-out: IC50): 3.96 µM
- IC50 ([2]; cell density 2 × 10^4 cells per 384-well, 8 concentrations 0.625-30 µM, read-out: IC50): 7.49 µM
- IC50 ([2]; cell density 3 × 10^4 cells per 384-well, 8 concentrations 0.625-30 µM, read-out: IC50): 9.82 µM
- IC50 ([2]; cell density 4 × 10^4 cells per 384-well, 8 concentrations 0.625-30 µM, read-out: IC50): 13.3 µM

Compound: O=C(NOC[C@H](O)CO)c1ccc(F)c(F)c1Nc1ccc(I)cc1F [PD 0325901]
- Toxicity Assay % Fluor (Clone V cells; human, 16 h, 30 µM): 83.92%
- Toxicity Assay Z-score (Clone V cells; human, 16 h, 30 µM): -2.25

Compound: CNC(=O)c1cc(Oc2ccc(NC(=O)Nc3ccc(Cl)c(C(F)(F)F)c3)cc2)ccn1 [Sorafenib, reference compound]
- Luciferase Assay % Lum [1, 3]: 88.55%
- Luciferase Assay % Lum ([1]; CC_NCI screening, full-length luciferase counter-screen luminescence, normalized to on-plate 0.3% DMSO controls, listed as SORAFENIB): 91.34%
- Luciferase Assay Z-score [1, 4]: -1.47
- Luciferase Assay Z-score ([1]; CC_NCI screening, full-length luciferase counter-screen, normalized to on-plate 0.3% DMSO controls, listed as SORAFENIB): -1.11
- Z-score (LCA primary screening) [2]: −7.62
- Split Luciferase Assay % Lum Set 1 [2, 5]: 5.76%
- Split Luciferase Assay % Lum Set 1 ([2]; CC_NCI screening, LCA luminescence, biological replicate Set 1, normalized to on-plate 0.3% DMSO controls (n=16 per plate), listed as SORAFENIB): 4.67%
- Split Luciferase Assay %Lum Set 2 [2, 6]: 15.60%
- Split Luciferase Assay %Lum Set 2 ([2]; CC_NCI screening, LCA luminescence, biological replicate Set 2, normalized to on-plate 0.3% DMSO controls (n=16 per plate), listed as SORAFENIB): 7.28%
- Split Luciferase Assay Z-score Set 1 [2, 7]: -7.62
- Split Luciferase Assay Z-score Set 1 ([2]; CC_NCI screening, LCA, biological replicate Set 1, normalized to on-plate 0.3% DMSO controls, listed as SORAFENIB): -7.70
- Split Luciferase Assay Z-score Set 2 [2, 8]: -6.87
- Split Luciferase Assay Z-score Set 2 ([2]; CC_NCI screening, LCA, biological replicate Set 2, normalized to on-plate 0.3% DMSO controls, listed as SORAFENIB): -7.54
- Split Luciferase Assay %Lum Avg [2, 9]: 10.68%
- Split Luciferase Assay %Lum Avg ([2]; CC_NCI screening, average of Set 1 and Set 2, normalized to 0.3% DMSO controls, listed as SORAFENIB): 5.98%
- IMin (% Luminescence) ([2]; Clone V cells): 5.98 % Luminescence
- IC50 [2, 16]: 3.98 µM

Compound: CCN(CC)CCNC(=O)c1c(C)[nH]c(/C=C2\C(=O)Nc3ccc(F)cc32)c1C [Sunitinib]
- Luciferase Assay % Lum [1, 3]: 95.10%
- Luciferase Assay Z-score [1, 4]: -0.63
- Split Luciferase Assay % Lum Set 1 [2, 5]: 68.81%
- Split Luciferase Assay %Lum Set 2 [2, 6]: 72.82%
- Split Luciferase Assay Z-score Set 1 [2, 7]: -2.52
- Split Luciferase Assay Z-score Set 2 [2, 8]: -2.21
- Split Luciferase Assay %Lum Avg [2, 9]: 70.82%

Compound: COc1cc2c(N3CCN(C(=O)Nc4ccc(OC(C)C)cc4)CC3)ncnc2cc1OCCCN1CCCCC1 [TANDUTINIB]
- Luciferase Assay % Lum [1, 3]: 88.98%
- Luciferase Assay Z-score [1, 4]: -1.41
- Split Luciferase Assay % Lum Set 1 [2, 5]: 92.73%
- Split Luciferase Assay %Lum Set 2 [2, 6]: 92.59%
- Split Luciferase Assay Z-score Set 1 [2, 7]: -0.59
- Split Luciferase Assay Z-score Set 2 [2, 8]: -0.60
- Split Luciferase Assay %Lum Avg [2, 9]: 92.66%

Compound: Oc1ncc(N(CCCl)CCCl)c(O)n1 [Uracil mustard]
- Luciferase Assay % Lum [1]: 97.98%
- Luciferase Assay Z-score [1]: -0.26
- Split Luciferase Assay % Lum Set 1 [2]: 76.42%
- Split Luciferase Assay %Lum Avg [2]: 74.62%
- Split Luciferase Assay %Lum Set 2 [2]: 72.82%
- Split Luciferase Assay Z-score Set 1 [2]: -1.91
- Split Luciferase Assay Z-score Set 2 [2]: -2.21

Compound: CC[C@]1(O)C[C@@H]2CN(CCc3c([nH]c4ccccc34)[C@@](C(=O)OC)(c3cc4c(cc3OC)N(C)[C@H]3[C@@](O)(C(=O)OC)[C@H](OC(C)=O)[C@]5(CC)C=CCN6CC[C@]43[C@@H]65)C2)C1 [Vinblastine, reference compound]
- Z-score (LCA primary screening) [2]: 7.42
- EMax (% Luminescence) ([2]; Clone V cells): 191.58 % Luminescence
- EC50 [2, 17]: 20.6 µM

Compound: CC[C@]1(O)C[C@H]2CN(CCc3c([nH]c4ccccc34)[C@@](C(=O)OC)(c3cc4c(cc3OC)N(C=O)[C@H]3[C@@](O)(C(=O)OC)[C@H](OC(C)=O)[C@]5(CC)C=CCN6CC[C@]43[C@@H]65)C2)C1 [Vincristine, reference compound]
- Z-score (LCA primary screening) [2]: 7.99
- EMax (% Luminescence) ([2]; Clone V cells): 198.49 % Luminescence
- EC50 [2, 17]: 0.27 µM

Compound: CCC1=C[C@@H]2CN(C1)Cc1c([nH]c3ccccc13)[C@@](C(=O)OC)(c1cc3c(cc1OC)N(C)[C@H]1[C@@](O)(C(=O)OC)[C@H](OC(C)=O)[C@]4(CC)C=CCN5CC[C@]31[C@@H]54)C2 [Vinorelbine, reference compound]
- Z-score (LCA primary screening) [2]: 8.79
- EMax (% Luminescence) ([2]; Clone V cells): 208.53 % Luminescence
- EC50 [2, 17]: 1.55 µM

Compound: Plicamycin
- Luciferase Assay % Lum (full-length luciferase counter-screen) [1, 10]: 92.59%
- Luciferase Assay Z-score (full-length luciferase counter-screen) [1, 10]: -0.95
- Split Luciferase Assay Z-score Set 1 [2, 11]: -1.20
- Split Luciferase Assay % Lum Set 1 [2, 12]: 85.12%
- Split Luciferase Assay Z-score Set 2 [2, 13]: -1.11
- Split Luciferase Assay %Lum Set 2 [2, 14]: 86.35%
- Split Luciferase Assay %Lum Avg [2, 15]: 85.73%
